The values that follow come from patent US9289403B2, “Use of modafinil to treat spasticity” (The Board of Trustees of the University of Arizona, priority 2007, dated 2016).

“Also recorded” adds a separate entry of the source.

Experiment [1] concerns cortical cells, inferior olivary cells and thalamic reticular cells. The following applies: cited from earlier work.
Experiment [2] has as its system H-reflex (hyper-reflexia) in spinally transected rats. Nature of the experiment: H-reflex frequency-dependent depression in spinally transected rats. In kind it is in vivo, rat. The following applies: no exercise, 3 mg/Kg/day modafinil p.o. for 30 days, measured 30 days after transection, compared with Tx-30, MBET 30 and control. As for the experimental part:
Adult female Sprague-Dawley rats (Harlan, 200-250 g, n=40) underwent a lower thoracic laminectomy under ketamine (60 mg/kg, i.m.) and xylazine (10 mg/kg, i.m.) anesthesia. A complete transection (Tx) of the spinal cord was made by aspiration and the transected ends of the cord retracted, producing a 2-3 mm cavity. Gelfoam was inserted into the cavity to facilitate hemostasis and the dura was closed over the Tx site. Muscle and skin were sutured in separate layers, and animals were provided with dextrose-saline (5%, 1 ml/100 g body weight, s.c.) to replace fluid lost during the surgical procedure. […] Animals were monitored for signs of urinary tract infection, and treatment with Baytril (enroflaxin 0.2 mg/day, i.m. for 10 days) was instituted as needed. […]
Stimulation of the tibial nerve under the calcaneal tendon produced two responses, an early M-wave (2 ms latency), produced by direct activation of motoneuronal axons in the tibial nerve, and a later H-reflex (8 ms latency), produced by activation of muscle afferents in the tibial nerve, which synapse monosynaptically on plantar motoneurons. The degree of stimulation that induced frequency-dependent depression of the H-reflex was determined. […] The change in the response at various frequencies was calculated as the percent of the response at 0.2 Hz in order to determine depression of the H-reflex as a function of stimulation frequency. […]

Take `NC(=O)C[S+]([O-])C(c1ccccc1)c1ccccc1` (centres unmarked) [modafinil]: the electrical coupling result in experiment [1] is “increases electrical coupling”. Also, the “H-reflex amplitude at stimulation frequencies from 0.2 to 10 Hz (habituation / hyper-reflexia)” value in experiment [2] was “as effective as passive exercise in normalizing exaggerated reflexes; also recorded: decreased (normalized) the H-reflex amplitude to the same extent as 30 days of exercise; also recorded: the reflexes were normalized; also recorded: effective in reducing hyper-reflexia after spinal transection”.
